The text below walks through data of ChEMBL document CHEMBL2401675, “Design, synthesis, and biological evaluation of novel dipeptide-type SARS-CoV 3CL protease inhibitors: structure-activity relationship study” (Eur J Med Chem, 2013).

The first experiment deals with Replicase polyprotein 1a (Severe acute respiratory syndrome-related coronavirus) (UniProt P0C6U8). The experiment in a line: Ratio of Kinact to Ki for SARS coronavirus Chymotrypsin-like protease.
In the case of `CCOC(=O)C1OC1C(=O)N(CCC(N)=O)NC(=O)[C@@H](CC(=O)[C@H](CC(C)C)NC(=O)OCc1ccccc1)Cc1ccccc1` (some centres not stated), the Ratio was 1900 M⁻¹ s⁻¹.

A further experiment has as its target Replicase polyprotein 1a (Severe acute respiratory syndrome-related coronavirus, UniProt P0C6U8). Kind of experiment: Inhibition of SARS coronavirus Chymotrypsin-like protease using H-Thr-Ser-Ala-Val-Leu-Gln-Ser-Gly-Phe-Arg-Lys-NH2 as substrate by fluorescence assay.
In the case of `CC(C)C[C@H](NC(=O)OCc1ccccc1)C(=O)N[C@@H](C[C@@H]1CCNC1=O)C(=O)c1ncc(-c2ccccc2)s1`, the Ki – broadly, the dissociation constant of the complex between target and ligand, obtained from inhibition or displacement – stood at 660 nM.

For the compound `CC(C)C[C@H](NC(=O)OC(C)(C)C)C(=O)N[C@@H](C[C@@H]1CCNC1=O)C(=O)c1nc2ccccc2s1`, the inhibition constant (Ki) was 23000 nM. With `COc1ccc(CCC(=O)N[C@@H](CC(C)C)C(=O)N[C@@H](C[C@@H]2CCNC2=O)C(=O)c2nc3ccccc3s2)cc1`, the Ki stood at 610 nM.

In turn, `COc1ccc(OCC(=O)N[C@@H](CC(C)C)C(=O)N[C@@H](C[C@@H]2CCNC2=O)C(=O)c2nc3ccccc3s2)cc1` displayed a Ki of 1560 nM. Same read-out and setting: then `CCCC[C@H](NC(=O)OCc1ccccc1)C(=O)N[C@@H](C[C@@H]1CCNC1=O)C(=O)c1nc2ccccc2s1`, with 1600 nM; and `COc1ccc(-c2cnc(C(=O)[C@H](C[C@@H]3CCNC3=O)NC(=O)[C@H](CC(C)C)NC(=O)OCc3ccccc3)s2)cc1`, with 52000 nM; and `CC(C)[C@H](NC(=O)OCc1ccccc1)C(=O)N[C@@H](C[C@@H]1CCNC1=O)C(=O)c1nc2ccccc2s1`, with 1710 nM. With `CC(C)C[C@H](NC(=O)COc1cccc(N(C)C)c1)C(=O)N[C@@H](C[C@@H]1CCNC1=O)C(=O)c1nc2ccccc2s1`, the affinity corresponds to a Ki of 840 nM. On the same count and under the same terms, then `COc1ccc(NCC(=O)N[C@@H](CC(C)C)C(=O)N[C@@H](C[C@@H]2CCNC2=O)C(=O)c2nc3ccccc3s2)cc1`, with 3200 nM; and `O=C(N[C@@H](Cc1ccccc1)C(=O)N[C@@H](C[C@@H]1CCNC1=O)C(=O)c1nc2ccccc2s1)OCc1ccccc1`, with 1200 nM. As for `CC(C)C[C@H](NC(=O)/C=C/c1ccccc1)C(=O)N[C@@H](C[C@@H]1CCNC1=O)C(=O)c1nc2ccccc2s1`, affinity was put at a Ki of 690 nM. The same measure, in the same setting: the result for `COc1ccc(/C=C/C(=O)N[C@@H](CC(C)C)C(=O)N[C@@H](C[C@@H]2CCNC2=O)C(=O)c2nc3ccccc3s2)cc1OC` reads 1300 nM; that for `CC(C)C[C@H](NC(=O)Cc1ccccc1)C(=O)N[C@@H](C[C@@H]1CCNC1=O)C(=O)c1nc2ccccc2s1`, 3200 nM.

As to `Cc1ccc(-c2cnc(C(=O)[C@H](C[C@@H]3CCNC3=O)NC(=O)[C@H](CC(C)C)NC(=O)OCc3ccccc3)s2)cc1`, the Ki worked out at 37000 nM. This Ki lies about 12-fold higher than the previous one.

On to `CC(C)C[C@H](NC(=O)COc1ccc(O)cc1)C(=O)N[C@@H](C[C@@H]1CCNC1=O)C(=O)c1nc2ccccc2s1`, for which the affinity corresponds to a Ki of 8400 nM. Compound `COc1ccc(/C=C/C(=O)N[C@@H](CC(C)C)C(=O)N[C@@H](C[C@@H]2CCNC2=O)C(=O)c2nc3ccccc3s2)cc1` showed a Ki of 700 nM. Same read-out and setting: the result for `CSCC[C@H](NC(=O)OCc1ccccc1)C(=O)N[C@@H](C[C@@H]1CCNC1=O)C(=O)c1nc2ccccc2s1` reads 9400 nM; that for `CC(C)CC(=O)N[C@@H](CC(C)C)C(=O)N[C@@H](C[C@@H]1CCNC1=O)C(=O)c1nc2ccccc2s1`, 5900 nM. Same read-out and setting: then `CC[C@@H](C)[C@H](NC(=O)OCc1ccccc1)C(=O)N[C@@H](C[C@@H]1CCNC1=O)C(=O)c1nc2ccccc2s1`, with 29000 nM; and `COc1ccccc1-c1cnc(C(=O)[C@H](C[C@@H]2CCNC2=O)NC(=O)[C@H](CC(C)C)NC(=O)OCc2ccccc2)s1`, with 2500 nM; and `CC(C)C[C@H](NC(=O)CCc1cccnc1)C(=O)N[C@@H](C[C@@H]1CCNC1=O)C(=O)c1nc2ccccc2s1`, with 7400 nM.
